T1: Solute carrier organic anion transporter family member 1C1 (Homo sapiens, UniProt Q9NYB5)
T1 sequence (Q9NYB5 whole entry): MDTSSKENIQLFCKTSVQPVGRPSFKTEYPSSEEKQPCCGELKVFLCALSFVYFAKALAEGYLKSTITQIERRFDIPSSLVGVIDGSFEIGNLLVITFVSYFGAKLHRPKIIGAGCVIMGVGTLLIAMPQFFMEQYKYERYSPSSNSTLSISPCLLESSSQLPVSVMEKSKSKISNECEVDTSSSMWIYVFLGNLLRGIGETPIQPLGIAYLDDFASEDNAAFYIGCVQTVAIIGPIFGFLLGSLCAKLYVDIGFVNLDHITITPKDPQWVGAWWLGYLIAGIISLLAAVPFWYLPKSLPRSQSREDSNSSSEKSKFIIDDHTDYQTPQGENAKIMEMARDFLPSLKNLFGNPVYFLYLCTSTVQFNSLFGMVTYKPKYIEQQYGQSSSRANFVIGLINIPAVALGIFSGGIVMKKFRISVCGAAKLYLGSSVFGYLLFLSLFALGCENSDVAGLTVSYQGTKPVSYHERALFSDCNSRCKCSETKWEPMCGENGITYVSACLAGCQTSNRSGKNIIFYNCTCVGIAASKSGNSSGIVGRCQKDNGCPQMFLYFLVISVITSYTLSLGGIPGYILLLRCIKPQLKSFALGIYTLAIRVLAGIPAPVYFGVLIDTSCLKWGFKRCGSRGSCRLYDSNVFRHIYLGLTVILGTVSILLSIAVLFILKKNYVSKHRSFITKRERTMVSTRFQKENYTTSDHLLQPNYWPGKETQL

B1: Solute carrier organic anion transporter family member 1C1 (Homo sapiens) (protein)
chain: T1 sequence (Q9NYB5 whole entry)

Residues, ends and D or L forms follow the SMILES beside them.

Substrate in one data set: N[C@@H](Cc1ccc(Oc2cc(I)c(O)c(I)c2)c(I)c1)C(=O)O
Description: (§1) TP_TRANSPORTER: uptake in OATP-F-expressing CHO cells. It counts as functional, cell-based.
Conditions: not given
Turning to B1, the Km is 0.128 µM.

Substrate in the next data set: N[C@@H](Cc1cc(I)c(Oc2cc(I)c(O)c(I)c2)c(I)c1)C(=O)O
The data set is described as §1. It counts as functional, cell-based.
Conditions: not given
With B1, the Km amounted to 0.0904 µM.

In another data set the target is T1, Solute carrier organic anion transporter family member 1C1. The data set is described as §1. In kind it is functional, cell-based. The settings on record: hamster.
Take `CC1(C)SSC(C)(C)[C@@H](NC(=O)[C@@H](N)Cc2ccc(O)cc2)C(=O)NCC(=O)N[C@@H](Cc2ccccc2)C(=O)N[C@H]1C(=O)O`: the Activity result is “is not a substrate [-]”.
For `C[C@H](CCC(=O)NCC(=O)O)[C@H]1CC[C@H]2[C@@H]3[C@H](O)C[C@@H]4C[C@H](O)CC[C@]4(C)[C@H]3C[C@H](O)[C@]12C` [GLYCOCHOLIC ACID], the Activity entry is “is not a substrate [-]”.
Turning to `N[C@@H](Cc1cc(I)c(Oc2ccc(O)c(I)c2)c(I)c1)C(=O)O` [LIOTHYRONINE], the Activity entry is “substrate [+]”.
Same read-out and setting: the value for `CC(C)[C@H](NC(=O)[C@H](CCC(=O)O)NC(=O)[C@H](Cc1ccccc1)NC(=O)[C@@H](C)NC(=O)[C@@H](N)Cc1ccc(O)cc1)C(=O)N[C@H](C(=O)NCC(N)=O)C(C)C` [DELTORPHIN II] was “is not a substrate [-]”.
On to `C=C[C@H]1C[N+]2(C)CC[C@H]1C[C@H]2[C@H](O)c1ccnc2ccc(OC)cc12`, for which the Activity result is “is not a substrate [-]”.
On the same count and under the same terms, the value for `CCCCC[C@H](O)/C=C/[C@H]1[C@H](O)CC(=O)[C@@H]1C/C=C\CCCC(=O)O` [DINOPROSTONE] was “is not a substrate [-]”; that for `C[C@@H]1O[C@@H](O[C@H]2C[C@@H](O)[C@]3(CO)[C@H]4[C@H](O)C[C@]5(C)[C@@H](C6=CC(=O)OC6)CC[C@]5(O)[C@@H]4CC[C@]3(O)C2)[C@H](O)[C@H](O)[C@H]1O` [OUABAIN] was “is not a substrate [-]”.
Turning to `CN(Cc1cnc2nc(N)nc(N)c2n1)c1ccc(C(=O)N[C@@H](CCC(=O)O)C(=O)O)cc1` [METHOTREXATE], the Activity result was “is not a substrate [-]”.
Same read-out and setting: to `CC(C)C[C@@H]1NC(=O)[C@@H](C(C)C)NC(=O)[C@@H]2CCCN2C(=O)[C@@H](CC(=O)O)NC(=O)[C@@H](Cc2c[nH]c3ccccc23)NC1=O` [BQ-123] (HELM PEPTIDE1{L.[dW].[dD].P.[dV]}$PEPTIDE1,PEPTIDE1,1:R1-5:R2$$$V2.0) belongs “is not a substrate [-]”; to `C[C@]12CC[C@H](OS(=O)(=O)O)CC1=CC[C@@H]1[C@@H]2CC[C@]2(C)C(=O)CC[C@@H]12` [PRASTERONE SULFURIC ACID], “is not a substrate [-]”.
Same read-out and setting: the value for `C[C@]12CC[C@@H]3c4ccc(O)cc4CC[C@H]3[C@@H]1CC[C@@H]2O[C@@H]1O[C@H](C(=O)O)[C@@H](O)[C@H](O)[C@H]1O` [ESTRADIOL 17B GLUCURONIDE] was “substrate [+]”; that for `O=C1OC(c2ccc(O)c(S(=O)(=O)[O-])c2)(c2ccc(O)c(S(=O)(=O)[O-])c2)c2c(Br)c(Br)c(Br)c(Br)c21.[Na+].[Na+]` [SULFOBROMOPHTHALEIN SODIUM] was “substrate [+]”.
Same read-out and setting: the value for `CCCCC/C=C\C\C=C/C=C/C=C/[C@@H](SC[C@@H](NC(=O)CC[C@H](N)C(=O)O)C(=O)NCC(=O)O)[C@@H](O)CCCC(=O)O` [LEUKOTRIEN C4] was “is not a substrate [-]”; that for `C[C@]12CC[C@@H]3c4ccc(OS(=O)(=O)O)cc4CC[C@H]3[C@@H]1CCC2=O` [ESTRONE SULFURIC ACID] was “substrate [+]”.
